The results in this text go back to patent publication US10449213B2, “Combinatorial approach to treating Alzheimer's disease” (Florida State University Research Foundation, Inc., priority 2011, dated 2019).

For assay [1], the target named is T1, Aβ(1-40) peptide (Homo sapiens, UniProt P05067).
T1 construct: Synthetic Aβ(1-40) peptide was purchased from Biopeptide, Inc; purchased Biopeptide, Inc; host or cells: chemical synthesis
Kind of assay: Intrinsic tyrosine fluorescence titration of Aβ(1-40) with vitamin B12. Conditions: 50 μM in PBS, 25° C., 1:1 binding stoichiometry, read-out: binding constant, KD. How it is done: Samples of Aβ(1-40) were reconstituted in phosphate buffer saline (PBS) (137 mM NaCl, 2.7 mM KCl, 10 mM Na2HPO4, 2 mM KH2PO4, pH 7.4), except in surface plasmon resonance experiments, as described below. Immediately after reconstitution into PBS, the pH of the solution was adjusted to 10, allowing for solubilization of the peptide. The pH was then readjusted to 7.4, followed by filtration through a 0.22 μm supor membrane filter. Concentrations of Aβ(1-40) were determined using UV-Vis spectroscopy (Cary 300 spectrophotometer, Varian, Inc) and an extinction coefficient of 1,490 M^−1 cm^−1 at 280 nm. Aβ(1-40) samples used in fluorescence experiments to examine peptide/B12 binding included freshly prepared, monomeric Aβ species and “aged” Aβ, incubated for seven days and containing high-molecular weight species.
Preparation of Vitamin B12 Samples. […] Concentrations of B12 were determined using UV-Vis spectroscopy (Cary300 spectrophotometer, Varian, Inc) and an extinction coefficient of 4,900 M^−1 cm^−1 at 525 nm.
Intrinsic Tyrosine Fluorescence Spectroscopy Experiments on Amyloid-Beta Peptide in the Presence of Vitamin B12. Intrinsic tyrosine fluorescence was measured as previously described by Lakowicz in Principles of Fluorescence Spectroscopy. […] The binding constant, KD, was calculated using equation (1) in SigmaPlot 9.0 (Systat Software, Inc.) assuming 1:1 binding stoichiometry. […]

In assay [2] the target is T2, Aβ(1-40) (Homo sapiens, UniProt P05067).
T2 construct: Synthetic Aβ(1-40) peptide was purchased from Biopeptide, Inc; purchased Biopeptide, Inc; host or cells: chemical synthesis
Kind of assay: Surface plasmon resonance (Biacore T-200), immobilized Aβ(1-40). Conditions: freshly prepared Aβ(1-40) immobilized on CM5 chip, 25° C., fit to 1:1 binding model; read-out: binding constant (SPR). How it is done:
Surface Plasmon Resonance (SPR) Experiments. The binding of Aβ(1-40) and vitamin B12 was analyzed by SPR using a Biacore T-200 optical biosensor (Biacore/GE Healthcare). The Aβ peptide was immobilized on CM5 sensor chips using amine coupling chemistry. Briefly, the carboxymethyl dextran surface of a CM5 sensor chip was activated with a 1:1 mixture of 0.4 M 1-ethyl-3-(3-dimethylaminopropyl)-carbodiimide (EDC) and 0.1 M N-hydroxysuccinimide (NHS) at 25° C. A peptide surface (400-800 RU) was created by pulsing Aβ in 10 mM sodium acetate at pH 4.5 over the flow cell. The remaining binding sites on the dextran surface were blocked with […], pH 8.5. A reference surface was activated and blocked as outlined above.
Binding experiments were carried out using HBS-EP+ running buffer (0.1 M Hepes, 1.5 M NaCl, 30 mM EDTA, 0.05% v/v surfactant P-20, pH 7.4) at 25° C. All components were 0.22 μm-filtered prior to use. […] Data were analyzed using T200 BiaEvaluation 1.0 (Biacore) software and fit to a 1:1 binding model.
In the SPR experiments, freshly prepared Aβ(1-40) was immobilized on a chip. […] Referring to FIG. 7, a concentration dependent change in the refractive index at the surface of the chip was detected. This change, reflective of the Aβ peptide/B12 interaction, was monitored in real time. […]
In general terms: In SPR one partner is held on a chip, and binding of the other changes the refractive index at the surface.

For assay [3], the target named is T1, Aβ(1-40) peptide. Kind of assay: Thioflavin T fluorescence, fibril formation by Aβ(1-40). The format is biochemical. To be noted: Aβ(1-40) 30 μM, 37° C. Here is the method:
Thioflavin T Fluorescence Spectroscopy Experiments on Amyloid-Beta Peptide in the Presence of Vitamin B12. The Fluorescence signal was measured as previously described using a Biotek Flx800 fluorescence microplate reader. Aβ(1-40) peptide samples (30 μM) were incubated at 37° C. in the presence or absence of B12. Following incubation, ThT was added to a final concentration of 10 μM as a probe for fibril formation by Aβ(1-40). All fluoresce readings were corrected for 10 mM sodium phosphate buffer contribution. Thioflavin T (ThT) (Sigma Aldrich) was reconstituted in Nanopure water, aliquoted, and stored at −20° C. Concentration of ThT was determined using UV-Vis spectroscopy (Cary300 spectrophotometer, Varian, Inc) and an extinction coefficient of 36,000 M^−1 cm^−1 at 412 nm.

Assay [4] relates to hippocampal neurons. Kind of assay: Aβ-induced neuronal cell death in hippocampal cell culture, Trypan Blue counting. It is filed as cell-based, Wistar rat. To be noted: pre-aggregated Aβ(1-40) 25 μM, B12 50, 25 or 12.5 μM, 72 hours. How it is done:
Neuronal Cell Culture Experiments. Neuronal cell culture experiments were conducted using methodologies described previously by Lee, et al in Cell, Vol. 111(2), pages 219-230 (2002); Lei, et al in EMBO J, Vol. 21(12), pages 2977-2989 (2002); Xin, et al in J Neurosci, Vol. 25(1), pages 139-48 (2005); and Xin, et al in European Journal of Neuroscience, Vol. 21(3), pages 622-636 (2005).
Briefly, hippocampal tissue was dissected from Wistar rat embryos (18 days gestation or E18) at 4° C. Dissociated hippocampal neurons were plated at a density of approximately 2.0×10^4 cells/cm^2 onto 35 mm culture dishes coated with poly-D-lysine. Neurons were matured in culture for 21 days in vitro in NEUROBASAL® media (Invitrogen) supplemented with B27 (2%), bFGF2 (2 ng/mL) and L-glutamine (0.5 mM). The Aβ(1-40) was dissolved in DMSO, followed by dilution into culture medium (final DMSO concentration was 1%), and incubation at 37° C. for three days to form Aβ(1-40) oligomeric species. […]
Trypan Blue Staining and Cell Counting. […] Five random fields, one from each corner and one from the center of the dish, were counted for both live and dead cells at 63× magnification to obtain a percentage of cell death. […]
The physiological relevance of the B12/Aβ interaction was evaluated using neuronal cell culture experiments. […]

Read-outs that look alike come from different tables or passages of the source.

T1 sequence (P05067 672-711 limits assumed): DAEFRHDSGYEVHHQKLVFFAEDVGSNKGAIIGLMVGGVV
T2 sequence (P05067 672-711 limits assumed): as above

Regarding `C/C1=C2/[N-][C@H]([C@H](CC(N)=O)[C@@]2(C)CCC(=O)NC[C@@H](C)OP(=O)([O-])O[C@H]2[C@@H](O)[C@@H](n3cnc4cc(C)c(C)cc43)O[C@@H]2CO)[C@]2(C)N=C(/C(C)=C3N=C(/C=C4N=C1[C@@H](CCC(N)=O)C\4(C)C)[C@@H](CCC(N)=O)[C@]\3(C)CC(N)=O)[C@@H](CCC(N)=O)[C@]2(C)CC(N)=O.[Co+3].[OH-]` [vitamin B12, hydroxocobalamin], the Kd in assay [1] (monomeric (freshly prepared) Aβ(1-40)) is 87 ± 2.7 µM; in assay [1] (self-associated (aged, seven days) Aβ(1-40)), 96.1 ± 3.5 µM; in assay [2] it was 132 µM. In addition, in assay [3] (B12 added to fibrils formed in its absence), the “ThT fluorescence after addition to pre-formed Aβ(1-40) aggregates (fibril dissociation)” value was “reduction of the ThT fluorescence”. Also, the “ThT fluorescence signal of Aβ(1-40) incubated in the presence of vitamin B12 (self-association)” value in assay [3] (incubated with B12) was “no increase in the ThT fluorescence signal”. Moreover, the “neuronal cell death upon addition of amyloid-beta peptide” value in assay [4] is reported as “alleviated”.
